Assay: gradient 5% acetonitrile 3 min, to 50% in 2 min, to 85% in 15 min, held 3 min, 100 µL/min
Conditions: column: Zorbax Extend-C18 2.1 x 50 mm; eluents: water / acetonitrile, 0.1% formic acid
Method in brief: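 Standards, all pure, were combined into mixtures of ~100 molecules and run at 100 μL/min on a Zorbax Extend-C18 column (2.1 × 50 mm, 1.8 μm) with water and acetonitrile, each containing 0.1% formic acid. A coupled quadrupole time-of-flight mass spectrometer operated in positive and negative ionization mode. Retention time values come from computationally picked adduct peaks, each inspected manually.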

Row | Compound | RP-LC retention time
1 | Cc1ccc(OCC(=O)Nc2cc3c(cc2N(C)C)n(C)c(=O)c(=O)n3C)c(C)c1 | 962 s
2 | Cc1cc([N+](=O)[O-])nn1CC(=O)NCc1cccs1 | 572 s
3 | COc1ccc(NC(=O)c2ccc3[nH]c4c(c3c2)CN(C(=O)C2CCC2)CC4)c(OC)c1 | 807 s
4 | Cc1cccc(CCNC(=O)C2CCCN(c3ncnc4c3nc3n4CCCCC3)C2)c1 (centres undefined) | 819 s
5 | Cc1ccc2nc(-c3ccncc3)cc(C(=O)Nc3nc(-c4ccccc4)c(C)s3)c2c1 | 990 s
6 | COc1cc(OC)c(NC(=O)N2CCCC(C)(C(=O)NCc3ccc(F)cc3)C2)cc1Cl (centres undefined) | 916 s
7 | Cc1ccc(CN2CCNCC2)cc1NC(=O)CNc1ccc(F)c(F)c1 | 639 s
8 | Cc1cc(C)c(NC(=O)Cn2nc3c(N(C)C4CCCCC4)nccn3c2=O)c(C)c1 | 797 s
9 | COCCN1C(=O)[C@H]2CN(Cc3cccc(C(F)(F)F)c3)C[C@H]2C1=O | 694 s
10 | Cc1ccc2oc(-c3nnc(C(=O)NCCCN4CCOCC4)o3)c(C)c2c1 | 668 s
11 | Cc1ccc(C)c(NC(=O)c2cnc(-c3ccc(F)cc3)nc2-c2ccncc2)c1 | 943 s
12 | CCCN1C(=O)COc2ccc(-c3csc(NC(=O)C4CC4)n3)cc21 | 879 s
13 | COCc1noc(CC2CCOC3(CCN(Cc4sccc4C)CC3)C2)n1 (centres undefined) | 636 s
14 | CC(NS(=O)(=O)c1ccc2c(c1)CCN2C(=O)N1CCCC1)C(=O)N1CCCCC1 (centres undefined) | 720 s
15 | CCc1nc(OCC(=O)Nc2cc(OC)cc(OC)c2)c2ccccc2n1 | 720 s
16 | Cc1cc2nn(CC(=O)N(C)C3CCCCC3)c(=O)n2c(Nc2ccccc2C)n1 | 1110 s
17 | CCOC(=O)C1CCc2sc(NC(=O)CCc3csc4nc(C5CC5)cn34)nc21 (centres undefined) | 599 s
18 | COCCNC(=O)C1CCCN(c2cc(=O)n(C)c(=O)n2C)C1 (centres undefined) | 567 s
19 | CCN(CC)CCNC(=O)C(C)n1c(=O)c(C(F)(F)F)nc2ccccc21 (centres undefined) | 669 s

Row | Compound | RP-LC retention time
20 | CCc1cccc(NC(=O)Cn2c(N)nc(COC)cc2=O)c1 | 650 s
21 | CCCn1c(-c2cccc(C(=O)N3CCC4(CC3)OCCO4)c2)nc2cccnc21 | 684 s
22 | COCC1CN(C2CCC2)CC12CCN(C(=O)c1sccc1C)CC2 (centres undefined) | 597 s
23 | COc1ccc(-c2noc(CN3N=NC4C(=O)N(c5ccc(F)cc5)C(=O)C43)n2)c(OC)c1 (centres undefined) | 1170 s
24 | CC(=O)c1cccc(NC(=O)Cc2ccc3ccccc3c2)c1 | 858 s
25 | O=C(NC1CCCCCC1)C1CCCN(c2nn3c(=O)c4c(nc3s2)CCCC4)C1 (centres undefined) | 838 s
26 | O=C(NCc1cc(F)cc(F)c1)C1CCc2nc(N3CCCCC3)ncc2C1 (centres undefined) | 778 s
27 | CS(=O)(=O)N1CCCC(C(=O)NC2CCCCC2)CCNC(=O)CC1 (centres undefined) | 633 s
28 | CCN1C=C(C(=O)OCc2ccc(C)cc2)C(C)=NS1(=O)=O | 1030 s
29 | COCCn1c(CCCC(=O)NCc2ccc3c(c2)OCO3)nc2cccnc21 | 632 s
30 | O=C(c1cc2c(s1)CCC(C(=O)N1CCN(C3CCCC3)CC1)C2)N1CCCC1 (centres undefined) | 606 s
31 | COCCc1noc(COC2CCCN(C(=O)c3ccoc3)C2)n1 (centres undefined) | 668 s
32 | CC1CC(=O)NN=C1c1ccc(N)c([N+](=O)[O-])c1 (centres undefined) | 612 s
33 | CCN(CC)c1ncc2c(n1)CCC(C(=O)NCc1ccc(F)cc1Cl)C2 (centres undefined) | 731 s
34 | Cc1cc(C(=O)NC(C)C)nn1C | 628 s
35 | O=C(CN1CCCCCC1)NCC12CCCC=C1NC(=O)CC2 (centres undefined) | 567 s
36 | Cc1nn2c(CNC(=O)c3cc(F)cc(F)c3)c(C)nc2s1 | 651 s
37 | COc1cc(=O)n2c(c1C(=O)NC1CCCCCC1)CCCC2 | 694 s

More lines, now with the values ahead:

Row | RP-LC retention time | Compound
38 | 897 s | COc1ccc(-c2nnc(-c3ccc(Cl)c(S(=O)(=O)N4CCOCC4)c3)o2)cc1
39 | 958 s | Cc1csc(-c2cc(S(=O)(=O)N3CCN(c4ncccn4)CC3)c(C)n2C)n1
40 | 654 s | CCOc1ccc(NC(=O)Cn2c(N3CCOCC3)nc(C)cc2=O)cc1
41 | 700 s | COc1ccc(NC(=O)C2CCN(c3nnc4cccc(C)n34)CC2)cc1Cl
42 | 826 s | CCN1CCn2cc(S(=O)(=O)N3CCN(c4ccccc4F)CC3)cc2C1=O
43 | 869 s | CCn1cc(S(=O)(=O)Nc2cc(F)ccc2C)c2cccnc21
44 | 1130 s | CCn1cc(-c2nc(C(=O)Nc3ccccc3F)cs2)c2cccnc21
45 | 804 s | CCOC(=O)c1cccc(NC(=O)N2CCC3(CC2)NC(=O)c2ccccc2O3)c1
46 | 868 s | Cn1nccc1-c1cccc(-c2noc(CNS(=O)(=O)c3ccc(F)cc3)n2)c1
47 | 721 s | CCCNC(=O)C1CCCN(c2ccc(SCC(=O)Nc3cc(C)cc(C)c3)nn2)C1 (centres undefined)
48 | 1200 s | CCc1sc(NC(=O)C2CCCCC2)nc1-c1ccccc1
49 | 643 s | COC(=O)c1ncoc1-c1ccccc1C(=O)N1CCCC1
50 | 980 s | CCN1C(=O)c2cc(S(=O)(=O)Nc3cc(F)ccc3F)ccc2Oc2cccnc21
51 | 962 s | Cc1ccc(S(=O)(=O)[C@H]2CS(=O)(=O)C[C@@H]2N2CCN(c3ccc(F)cc3)CC2)cc1
52 | 680 s | O=S(=O)(c1ccc(-c2ccno2)s1)N1CCN(c2ccccn2)CC1
53 | 770 s | O=C(NCc1cccc2ccccc12)NCC1CCN(C(=O)COc2ccccc2)CC1
54 | 827 s | CSc1ncccc1C(=O)N1CCCn2nc(-c3cccc(Cl)c3)cc2C1
55 | 826 s | O=C(NCc1ccccc1)C1CCCN(S(=O)(=O)c2c[nH]c(C(=O)N3CCCCCC3)c2)C1 (centres undefined)
56 | 963 s | O=c1ccn(-c2ccc(Cl)cc2)nc1-c1nc(-c2ccccc2Cl)no1
57 | 961 s | O=C([C@@H]1C[C@H](F)CN1S(=O)(=O)c1cc(F)cc(F)c1)N1CCc2ccccc2C1
58 | 534 s | O=C(CCNc1cnc2cnccn12)Nc1ccc(N2CCOCC2)cc1
59 | 1020 s | Cc1ccc(N2CC(c3nc(-c4ccccc4F)no3)CC2=O)cc1C (centres undefined)
60 | 620 s | CS(=O)(=O)Nc1ccc(C2(C(=O)NCc3ccccn3)CCCCC2)cc1
61 | 942 s | CCCn1cc(S(=O)(=O)Nc2cccc(Cl)c2)c2cccnc21
62 | 628 s | CCOc1ccccc1NC(=O)Cn1ncc2c(N3CCN(c4ccccn4)CC3)ncnc21
63 | 857 s | Cc1cc(F)ccc1NC(=O)C1CCCN(S(=O)(=O)c2c[nH]c(C(=O)N3CCCCCC3)c2)C1 (centres undefined)

Row | RP-LC retention time | Compound
64 | 908 s | CCN1C(=O)C2CCCCN2c2ccc(C(=O)NCc3ccccc3)cc21 (centres undefined)
65 | 668 s | CC(C)Cn1c(=O)c(N2CCN(C(=O)NCCc3ccccc3)CC2)nc2ccncc21
66 | 899 s | O=C(Nc1ccc(F)c(Cl)c1)N1CCC(N2CCN(Cc3ccccc3)C2=O)CC1
67 | 871 s | CC1(C(=O)NCc2ccc(F)cc2)CCN(C(=O)Nc2ccccc2Br)CC1
68 | 837 s | O=C(Cn1nc(N2CCCC2)c2ccccc2c1=O)NCc1ccccc1
69 | 669 s | CSc1ccc(CNC(=O)c2ccc3ncnc(N4CCCC4)c3c2)cc1
70 | 979 s | CC(C)NC(=O)c1ccc(OCC2CCCN(C(=O)Cc3ccc(F)cc3)C2)cc1 (centres undefined)
71 | 972 s | CN(C)c1ccc(C(=O)Nc2cc(-c3cccs3)no2)cc1
72 | 752 s | CCN1CCn2cc(S(=O)(=O)Nc3cc(C)ccc3C)cc2C1=O
73 | 1070 s | CCn1cc(-c2nc(C(=O)NCc3ccc(F)cc3Cl)cs2)c2cccnc21
74 | 570 s | CN(CCCNC(=O)C1CCCN(c2ccc(N3CCOCC3)nn2)C1)c1ccccc1 (centres undefined)
75 | 802 s | O=S(=O)(Cc1ccccc1)N1CCC(n2c(-c3ccco3)nc3cccnc32)C1 (centres undefined)
76 | 680 s | COc1ccc(OC)c(CNC(=O)C2CCN(c3cnc4nccnc4c3)CC2)c1
77 | 688 s | O=C(Cn1nc2nc(N3CCCC3)ccn2c1=O)NCc1ccc(F)cc1Cl
78 | 654 s | COc1ccc(-n2nnc(C(=O)O)c2-c2ccccn2)cc1
79 | 1100 s | Cc1cccc(-c2nc(-c3cccc(-c4ccn[nH]4)c3)no2)c1
80 | 998 s | COc1ccc(OC)c(C(C)NC(=O)C2CCCN(c3nccnc3Oc3ccccc3)C2)c1 (centres undefined)
81 | 602 s | Cc1ccc(CNC(=O)C2(CCO)CCN(c3ncccn3)C2)o1 (centres undefined)
82 | 717 s | Cc1cccc(Nc2c(-c3ccc(N4CCOCC4)cc3)nc3ncccn23)c1
83 | 978 s | Cc1nn(-c2ccc(-c3ccccc3)nn2)c(C)c1S(=O)(=O)NCc1ccc2c(c1)OCO2
84 | 720 s | Cc1ccc(Oc2ccc(NS(=O)(=O)c3ccc(F)cc3F)cc2)nn1
85 | 568 s | O=C(NCc1cccnc1)C1CCN(C(=O)c2ncn3c2COC(c2ccccc2)C3)CC1 (centres undefined)
86 | 805 s | O=C(NCCc1ccccc1)N1CCCn2nc(-c3cccs3)cc2C1
87 | 961 s | O=C(C1CCN(S(=O)(=O)c2ccc(-c3noc(COc4ccccc4)n3)cc2)CC1)N1CCCC1
88 | 835 s | O=C(NCC(=O)N1CCCc2ccccc21)c1ccccc1Cl
89 | 1010 s | O=C(Nc1ccc2c(c1)OCO2)N1CCN(c2nc3cccnc3n(Cc3ccccc3)c2=O)CC1

Reference: the METLIN SMRT retention time set (Domingo-Almenara et al. 2019)
